Where only a bound is given, the exact number is not on record here.

The subject of data set [1] is UGT. Put plainly: Metabolic stability assessed as monkey UGT-mediated metabolism by measuring half life by phase II UGT conjugation assay. Format: ADME, Macaca mulatta. The conditions noted are these: rhesus monkey.
Data set [2] deals with Human immunodeficiency virus 1. The data set is described as follows: Antiviral activity against recombinant HIV1 NLRep-Rluc harbouring polymorphic NT infected in human MT-2 cells assessed as inhibition of virus growth in presence of fetal bovine serum by measuring luciferase activity after 5 days. In kind it is functional, organism-based. The conditions noted are these: Human immunodeficiency virus 1, NLRep, MT2, 120 h.

By half-life is commonly meant how long it takes for the measured level to halve. In general, EC50 refers to the concentration that produces a half-maximal response. Turning to `Cc1nc(C)c([C@H](OC(C)(C)C)C(=O)O)c(N2CCC(C)(C)CC2)c1-c1ccc(OCCc2ccc(F)cc2)cc1`, the half-life in data set [1] was ≥ 2 h. The EC50 in data set [2] stood at 3.5 nM.

The record behind these values is ChEMBL document CHEMBL5046290, “Design, Synthesis, and Preclinical Profiling of GSK3739936 (BMS-986180), an Allosteric Inhibitor of HIV-1 Integrase with Broad-Spectrum Activity toward 124/125 Polymorphs” (J Med Chem, 2022).
